Test results: patent US20140194460A1, “TREATMENT OF ENDOMETRIOSIS” (Ferring B.V., priority 2009, published 2014)
Several values for one entry are separate records, joined by “and”; a condition that tells them apart may be missing. Equal entries are not always repeated. Entries after “also recorded” stand apart in the source; their conditions may differ.

Legend:
Type in all cases: in vivo, human
[1] = tested on: proliferating cells (Ki67+) in endometriotic implants; test: Proliferative activity by Ki-67 immunocytochemistry; details: after versus before treatment, FIG. 3
Protocol: Immunocytochemistry with Ki-67 (monoclonal IgG1 DAKO Corp., Denmark) antibody was performed in order to evaluate the proliferative activity of the samples, by methods well known in the art. […] The images obtained show proliferating cells as positive for Ki67 with nuclear (brown/black) staining. At least 10 random 40× microscopic fields per sample were photographed and analysed. Areas of interest corresponding to proliferating cells (Ki67+) were segmented and marked, and counted.

[2] = tested on: vessels in endometriotic lesions; test: Vascularisation of biopsy samples by CD31 immunofluorescence/immunohistochemistry; details: after versus before treatment, FIG. 2
Protocol: The vascularisation effects of the quinagolide were assessed by immunofluorescence/immunohistochemistry on the biopsy samples taken before and after treatment, by methods well known in the art. The CD31(+) signal was used which specifically stains for vessels; vessels are stained brown. In order to quantify vascularisation at least 10 random 40× microscopic fields per sample were photographed and analysed using Image pro-plus software. Areas of interest corresponding to vessels (brown stain) were segmented and marked; and those corresponding to non vascularised areas were segmented and marked differently. The marked image was then analysed to show the % vascularised area per tissue, and the results for samples before and after treatment are shown in FIG. 2.

[3] = tested on: endometriosis; test: ASRM classification of endometriosis before and after treatment (pilot study); details: per patient (9 women with hyperprolactinemia and endometriosis); oral 25 then 50 then 75 micrograms/day, total 18-20 weeks; stage IV most severe, stage I least severe
Protocol: (§1) 1] Laparoscopy 1: an endometriotic implant was biopsied, and a second endometriotic implant, similar to the biopsied one, was marked with a non-absorbable suture. Pictures were taken before and after surgery from all individuals. The marked implant was photographed (e.g. FIG. 1A). The biopsy sample was analysed as described below. An assessment of ASRM stage pre-treatment was taken. The PRL level (μg/mL) and Ca125 level (IU/ml) for each patient was measured pre-treatment, by known methods.
3] Laparoscopy 2: in which the second (marked) implant was biopsied. The marked implant was photographed (e.g. FIG. 1B). The biopsy sample was analysed as described below. A second assessment of the ASRM stage post-treatment was completed. The PRL level (μg/mL) and Ca125 level (IU/ml) for each patient was measured post-treatment, by known methods.
Operative L1 and L2 were performed by two experienced surgeons using modern laparoscopic equipment and the surgeries were recorded by video. The severity of the disease was established according to the Revised American Society for Reproductive Medicine classification of endometriosis: […] (16). During L1, 4-6 index peritoneal red lesions were identified before surgical manipulation started. Half of the index lesions were surgically removed and stored as described below. […]

[4] = tested on: dopamine receptor 2 (DAR2); test: DAR2 expression in endometriotic lesions by staining; details: after versus before treatment, FIG. 5
Protocol: DAR2 expression in human endometriotic lesions was measured by staining, by methods well known in the art (FIG. 5, bottom).

[5] = tested on: PRL; test: Serum PRL level before and after treatment; details: per patient; after oral 25/50/75 micrograms/day titrated treatment, 18-20 weeks
Protocol: 1] Laparoscopy 1: an endometriotic implant was biopsied, and a second endometriotic implant, similar to the biopsied one, was marked with a non-absorbable suture. Pictures were taken before and after surgery from all individuals. The marked implant was photographed (e.g. FIG. 1A). The biopsy sample was analysed as described below. An assessment of ASRM stage pre-treatment was taken. The PRL level (μg/mL) and Ca125 level (IU/ml) for each patient was measured pre-treatment, by known methods. 3] Laparoscopy 2: in which the second (marked) implant was biopsied. The marked implant was photographed (e.g. FIG. 1B). The biopsy sample was analysed as described below. A second assessment of the ASRM stage post-treatment was completed. The PRL level (μg/mL) and Ca125 level (IU/ml) for each patient was measured post-treatment, by known methods. During the four month treatment period, i.e. between L1 and L2, patients were monthly monitored in our clinic to assess severity of common side effects of Drd2-A like dizziness, nausea and vomiting. During these visits, blood was drawn for subsequent EIA measurement of serum PRL, a marker of the level of Drd2 activity, to monitor compliance with taking the medication.

[6] = tested on: endometriotic lesions; test: Histological analysis and Superarray QF-PCR expression analysis of index lesions removed at L1 and L2
Protocol: At the end of treatment, the L2 was performed and video recorded. During surgery the silk knot was identified in all patients, the suture removed and the area containing the index lesion left behind surgically excised. If significant adhesion formation was detected, lysis of adhesion was performed. The index lesions removed at L1 and L2 were fixed in formalin (approximately 75% of each lesion tissue) for histological verification and descriptive analysis of endometriosis. Formalin fixed samples were also employed for immunohistochemical analysis and subsequent quantification of vascularisation, vessel immatureness, Drd2 expression, cell proliferation, VEGFR2 expression and VEGFR2 activation by techniques well known in the art. The remaining portion of each lesion tissue (25%) was homogenized in Trizol and cryopreserved at −80° C. for subsequent Superarray QF-PCR analysis.

[7] = tested on: Ca125; test: Ca125 level before and after treatment; details: per patient; after oral 25/50/75 micrograms/day titrated treatment, 18-20 weeks
Protocol: as §1, with “methods. 3] Laparoscopy 2: in which the second (marked) implant was biopsied. The marked implant was photographed (e.g. FIG. 1B). The biopsy sample was analysed as described below. A second assessment of the ASRM stage post-treatment was completed. The PRL level (μg/mL) and Ca125 level (IU/ml) for each patient was measured post-treatment, by known methods.” for “methods.”

[8] = tested on: peritoneal red endometriotic lesions; test: Macroscopic analysis: appearance and surface area of index endometriotic lesions at L1 and L2
Protocol: Operative L1 and L2 were performed by two experienced surgeons using modern laparoscopic equipment and the surgeries were recorded by video. The severity of the disease was established according to the Revised American Society for Reproductive Medicine classification of endometriosis: […] (16). During L1, 4-6 index peritoneal red lesions were identified before surgical manipulation started. Half of the index lesions were surgically removed and stored as described below. The remaining half index lesions were left behind and marked with an unabsorbable silk knot sature approximately 1 cm away from them. All non-index lesions were subsequently removed and discarded. […] Thus the study continued with 10 patients after L1. One patient discontinued treatment. At the end of treatment, the L2 was performed and video recorded. During surgery the silk knot was identified in all patients, the suture removed and the area containing the index lesion left behind surgically excised. If significant adhesion formation was detected, lysis of adhesion was performed. The index lesions removed at L1 and L2 were fixed in formalin (approximately 75% of each lesion tissue) for histological verification and descriptive analysis of endometriosis. Formalin fixed samples were also employed for immunohistochemical analysis and subsequent quantification of vascularisation, vessel immatureness, Drd2 expression, cell proliferation, VEGFR2 expression and VEGFR2 activation by techniques well known in the art. The remaining portion of each lesion tissue (25%) was homogenized in Trizol and cryopreserved at −80° C. for subsequent Superarray QF-PCR analysis. All laparoscopies were recorded with a Karl Storz (Germany) videocamera. […] Eligible frames were captured, copied to a PC computer and opened with ImagePro Plus Version 6.03 (Media Cybernetics, Silver Spring, Md., USA) software for image processing. The size of the black or grey cap served as a reference to measure the changes in surface induced by quinagolide at L2 over the lesions left behind during L1.

[9] = L2 versus L1, results not shown

In the case of `CCCN1C[C@H](NS(=O)(=O)N(CC)CC)C[C@H]2Cc3c(O)cccc3C[C@@H]21` [quinagolide, (3R,4aR,10aS)-3-(Diethylsulfamoylamino)-6-hydroxy-1-propyl-3,4,4a,5,10,10a-hexahydro-2H-benzo[g]quinoline], the “Cell proliferation (Ki-67 positive cells per microscopic field)” value [1] was “trend towards reduced cell proliferation”, the “Vascularisation of the endometriotic sample (% vascularised area, CD31)” value [2] was “significant decrease in vascularisation” and the ASRM post treatment [3] was “Stage II; also recorded: Stage I; also recorded: Stage III”. For the same compound, the “Expression of the dopamine receptor 2 (DAR2) in endometriotic lesions” value [4] was “increases the expression”, the “PRL level after treatment” value [5] was <0.6 μg/mL (2×) and 15.1 μg/mL and 14 μg/mL and 6.5 μg/mL and <0.1 μg/mL and 6.4 μg/mL and 1.1 μg/mL and 28.6 μg/mL and the PAI-1 expression ([6]; L2 lesion) was “down-regulated”. The “Histological analysis of lesions” value ([6]; L2 lesions) was “signs of tissue degeneration”, the “Expression of Drd2 and antiangiogenic cytokine CXCL10” value [6, 9] was “upreguilating” and the “Expression of VEGF/VEGFR2 and proangiogenic cytokines CCL2, RUNX1 and AGGF1” value [6, 9] was “downregulated”. The “Ca125 level after treatment” value [7] was 25.9 IU/ml and 15.5 IU/ml and 18 IU/ml and 21.1 IU/ml and 22 IU/ml and 24.1 IU/ml and 20.4 IU/ml and 29.9 IU/ml and 24.9 IU/ml, the “Decrease of mean total surface area (size) of index lesions, L2 versus L1” value ([8]; 9 patients, after 18-20 weeks treatment) was 68% and the “Mean of the total surface area of index lesions measured during L2” value ([8]; 9 patients, vanished lesions counted as 100% size reduction, L1 value 36.09±20.56 mm^2, p<0.05) was 11.57±12.54 mm^2. For the same compound, the Lesions vanishing ([8]; after 18-20 weeks treatment) was 35%, the “Number of recovered index lesions showing reduction in size compared to L1” value ([8]; out of 15 lesions recovered at L2) was 13 and the “Number of red index lesions vanished at L2” value ([8]; out of 23 red index lesions labelled at L1) was 8. For the same compound, the “Number of patients with all index endometriotic lesions absent during L2” value ([8]; out of the 9 patients) was 2 and the “Number of patients with vanished lesions combined with persisting lesions decreased in size” value ([8]; out of the 9 patients) was 3.
